Measured values from the supplement of paper PMC13380429.

Key:
Details in all cases: 72 h
[1] = test system: Caco-2; assay: relative viability EC50 (midpoint between 100% and the lowest measured viability); higher = less toxic
[2] = test system: Vero E6; assay: as above
[3] = test system: U2OS; assay: as above
[4] = test system: HepG2; assay: as above
[5] = test system: Caco-2; assay: drug sensitivity score (DSS) for viability; higher = more toxic; extreme values may be limits of the assay
[6] = test system: Vero E6; assay: as above
[7] = test system: U2OS; assay: as above
[8] = test system: HepG2; assay: as above
[9] = test system: Caco-2; assay: cell viability relative to DMSO; higher = less toxic
[10] = test system: Vero E6; assay: as above
[11] = test system: U2OS; assay: as above
[12] = test system: HepG2; assay: as above
[13] = test system: Calu-3; assay: drug sensitivity score (DSS) for viability; higher = more toxic; extreme values may be limits of the assay
[14] = test system: Calu-3; assay: cell viability relative to DMSO; higher = less toxic

Structure (SMILES) | relative viability EC50 [1] [µM] | relative viability EC50 [2] [µM] | relative viability EC50 [3] [µM] | relative viability EC50 [4] [µM] | drug sensitivity score [5] | drug sensitivity score [6] | drug sensitivity score [7] | drug sensitivity score [8] | cell viability ([9]; 1 nM) [%] | cell viability ([9]; 10 nM) [%] | cell viability ([9]; 100 nM) [%] | cell viability ([9]; 1000 nM) [%] | cell viability ([9]; 10000 nM) [%] | cell viability ([10]; 1 nM) [%] | cell viability ([10]; 10 nM) [%] | cell viability ([10]; 100 nM) [%] | cell viability ([10]; 1000 nM) [%] | cell viability ([10]; 10000 nM) [%] | cell viability ([11]; 1 nM) [%] | cell viability ([11]; 10 nM) [%] | cell viability ([11]; 100 nM) [%] | cell viability ([11]; 1000 nM) [%] | cell viability ([11]; 10000 nM) [%] | cell viability ([12]; 1 nM) [%] | cell viability ([12]; 10 nM) [%] | cell viability ([12]; 100 nM) [%] | cell viability ([12]; 1000 nM) [%] | cell viability ([12]; 10000 nM) [%] | drug sensitivity score [13] | cell viability ([14]; 1 nM) [%] | cell viability ([14]; 10 nM) [%] | cell viability ([14]; 100 nM) [%] | cell viability ([14]; 1000 nM) [%] | cell viability ([14]; 10000 nM) [%]
Cn1nc(-c2cccc(F)c2)n(C)c1=S [suritozole] | > 10 | > 10 | > 10 | > 10 | 0 | 0 | 0 | 0 | 93.6 | 97.5 | 102 | 96 | 90.1 | 102 | 101 | 99.4 | 94.5 | 98.4 | 98.9 | 101 | 99.7 | 103 | 96 | 108 | 99.4 | 98.2 | 106 | 97 | – | – | – | – | – | –
Cn1ncnc1COc1nn2c(-c3cc(F)ccc3F)nnc2cc1C(C)(C)C | – | – | – | – | – | 0 | 0 | 0 | – | – | – | – | – | – | – | – | – | – | – | – | – | – | – | – | – | – | – | – | 0 | – | – | – | – | –
Nc1cc(N2CCCCC2)nc(N)[n+]1[O-] [minoxidil] | – | – | – | – | – | 0 | 0 | 0 | – | – | – | – | – | – | – | – | – | – | – | – | – | – | – | – | – | – | – | – | 0 | – | – | – | – | –
COc1cc(CNC(=O)CCCC/C=C/C(C)C)ccc1O [capsaicin] | > 10 | > 10 | > 10 | – | 0 | 0 | 0 | – | 116 | 90.9 | 103 | 91.2 | 107 | 96.4 | 100 | 106 | 107 | 102 | 106 | 100 | 101 | 98.4 | 100 | – | – | – | – | – | – | – | – | – | – | –
Cc1c(Cl)cccc1S(=O)(=O)Nc1nc(NCCc2ccccc2)nc2c1CN(Cc1ccccc1)CC2 [CaMKII-IN-1] | > 10 | > 10 | > 10 | > 10 | 0.3 | 0 | 0 | 0 | 98.9 | 96.1 | 93 | 102 | 83.1 | 95.3 | 104 | 98.2 | 97.7 | 108 | 102 | 102 | 105 | 98.9 | 88.7 | 88.3 | 97.1 | 90.6 | 101 | 93.6 | – | – | – | – | – | –
C[C@H](Nc1ncnc2nc[nH]c12)c1cc2cccc(Cl)c2c(=O)n1-c1ccccc1 [duvelisib] | – | > 10 | > 10 | – | 4.1 | 1.4 | 1.7 | 3 | 99.8 | 95.4 | 91.7 | 84.1 | 52.5 | 105 | 101 | 94.9 | 91.8 | 76.3 | 99.4 | 92.2 | 96.1 | 88.6 | 75.5 | 91.8 | 96.5 | 97.9 | 89.5 | 65.9 | 3.8 | 98.6 | 102 | 101 | 88.9 | 58.6
O=C(O)[C@@H](S)[C@@H](S)C(=O)O [dimercaptosuccinic-acid] | > 10 | > 10 | > 10 | – | 0 | 0 | 0 | – | 107 | 90.7 | 94.2 | 95.8 | 110 | 99.7 | 102 | 100 | 101 | 104 | 101 | 98.2 | 101 | 101 | 105 | – | – | – | – | – | – | – | – | – | – | –
CC(C)C(N)=O [isobutyramide] | > 10 | > 10 | > 10 | > 10 | 0 | 0 | 0 | 0 | 95.1 | 95.6 | 97.9 | 90.2 | 98.2 | 105 | 106 | 96.2 | 98 | 105 | 102 | 97.6 | 101 | 98.8 | 104 | 115 | 99.1 | 90.3 | 101 | 96.8 | – | – | – | – | – | –
Cc1cc(=O)n(-c2ccccc2)n1C [phenazone] | – | – | – | – | – | 0 | 0 | 0.8 | – | – | – | – | – | – | – | – | – | – | – | – | – | – | – | – | – | – | – | – | 0 | – | – | – | – | –
C[C@]12CCC(=O)C=C1CC[C@@H]1[C@@H]2[C@@H](O)C[C@@]2(C)[C@H]1CC[C@]2(O)C(=O)CO [hydrocortisone] | – | – | – | – | – | 0 | 0 | 2.9 | – | – | – | – | – | – | – | – | – | – | – | – | – | – | – | – | – | – | – | – | 0 | – | – | – | – | –
CN(C)C(=S)SC(=S)N(C)C [tetramethylthiuram-monosulfide] | – | – | – | – | – | 8.1 | 5.7 | 11.3 | – | – | – | – | – | – | – | – | – | – | – | – | – | – | – | – | – | – | – | – | 8.4 | – | – | – | – | –
O=C(O)CCCCC(=O)O [adipic-acid] | > 10 | > 10 | > 10 | > 10 | 0 | 0 | 0 | 0 | 89 | 87 | 95.1 | 96.6 | 105 | 94.9 | 99.9 | 89.3 | 93.1 | 102 | 102 | 96.7 | 99.6 | 103 | 104 | 104 | 108 | 94.4 | 97.4 | 105 | – | – | – | – | – | –
O=c1cc(-c2ccc(O)c(O)c2)oc2cc(O)cc(O)c12 [luteolin] | > 10 | > 10 | > 10 | > 10 | 1.1 | 0 | 0.4 | 0 | 92.8 | 98.1 | 95.9 | 94.5 | 79.3 | 99.5 | 105 | 94.7 | 101 | 95.3 | 99.9 | 105 | 99.9 | 105 | 79.4 | 111 | 99.4 | 117 | 97.5 | 90.8 | 0.9 | 105 | 123 | 107 | 106 | 70.9
CCCC(CCC)C(=O)Nc1ccn([C@@H]2O[C@H](CO)[C@@H](O)C2(F)F)c(=O)n1 | – | – | – | 0.259 | 2.1 | 2 | 1 | 13 | 94.7 | 106 | 94.3 | 96.3 | 66.7 | 93.7 | 93 | 87.7 | 98.3 | 63 | 97.5 | 100 | 101 | 110 | 68.2 | 98.3 | 108 | 85 | 39.4 | 30.1 | 2.3 | 98.3 | 97.3 | 91 | 91.7 | 67.9
CC(C)NCC(O)c1ccccc1Cl (stereo not drawn) [clorprenaline] | > 10 | > 10 | > 10 | > 10 | 0 | 0 | 0 | 0 | 99.7 | 104 | 94.7 | 93.7 | 102 | 99.8 | 95 | 99.8 | 99.6 | 106 | 94 | 103 | 95.6 | 102 | 103 | 101 | 102 | 93.4 | 97.3 | 113 | – | – | – | – | – | –
CCCCCCCCCCCCCCCC=O [1-hexadecanal] | > 10 | > 10 | > 10 | > 10 | 0 | 0 | 0 | 0 | 104 | 98 | 85.6 | 95.2 | 108 | 106 | 98.4 | 106 | 96.5 | 102 | 102 | 104 | 96.3 | 104 | 97.5 | 109 | 105 | 102 | 95.8 | 97 | – | – | – | – | – | –
O=C(O)/C=C(/CC(=O)O)C(=O)O [cis-aconitic-acid] | > 10 | > 10 | > 10 | > 10 | 0 | 0 | 0 | 0 | 88.4 | 97.1 | 98.6 | 90 | 93.4 | 99 | 103 | 94.9 | 97.8 | 109 | 98.3 | 99.1 | 101 | 96.7 | 103 | 105 | 105 | 91.6 | 113 | 98.9 | – | – | – | – | – | –
O=C(Nc1cccc2cccnc12)c1ccc(N2C(=O)[C@@H]3[C@H](C2=O)[C@@H]2C=C[C@H]3C2)cc1 [endo-IWR-1] | – | – | – | – | 0 | 3.9 | 0 | 0 | 96 | 94.3 | 101 | 89.2 | 94.2 | 110 | 105 | 97.6 | 78.8 | 66.7 | – | 105 | 103 | 98 | 93.3 | 108 | 103 | 98.5 | – | 91.7 | 2.9 | – | 108 | 98.9 | 81.8 | 74.4
CC(=C\c1ccc(Cl)cc1)/C(C)=N/O [AP-18] | > 10 | > 10 | > 10 | > 10 | 0 | 0 | 0 | 0 | 99.5 | 104 | 90.4 | 98.1 | 95.7 | 104 | 106 | 102 | 105 | 99.3 | 100 | 106 | 97.6 | 103 | 100 | 103 | 95.3 | 89.6 | 101 | 107 | – | – | – | – | – | –
CC1(C)CCC(C)(C)c2cc(Cn3cccn3)c(/C=C/c3ccc(C(=O)O)cc3)cc21 [palovarotene] | > 10 | > 10 | > 10 | > 10 | 0 | 0 | 0 | 0 | 107 | 93.7 | 94.8 | 96 | 92.9 | 100 | 104 | 100 | 106 | 98.3 | 105 | 99.6 | 102 | 94 | 94.8 | 95.4 | 99.7 | 103 | 113 | 99.4 | – | – | – | – | – | –
